{"source": "patent US20230295235A1", "about": "“COMPOUNDS TARGETING ALPHA4-BETA7 INTEGRIN” (ZEALAND PHARMA A/S, priority 2020, published 2023)", "tested_on": "DSS induced ulcerative colitis", "experiment": "DSS induced chronic colitis (ulcerative colitis) mouse model", "assay_type": "in vivo", "description": "The current study was conducted in the mice model of dextran Sodium Sulfate (DSS) induced ulcerative colitis (UC). DSS induces chronic colitis in experimental animals when given orally in drinking water for 7 days followed by no DSS in drinking water. Chronic intestinal inflammation is associated with body weight loss, diarrhea, blood in the stool and the infiltration of leucocytes from the blood to intestinal tissue. Among those cells, subpopulations of T lymphocytes such as Th1 and Th17 play an important role in the initiation and chronicity of inflammation. Trafficking of T cells from blood to target tissue is a complex process that is controlled by molecularly distinct adhesion and signaling steps. As such, the α4β7 and MAdCAM-1 adhesion mechanism may be closely involved in lymphocyte trafficking to the site of inflammation in the gut.\nEvaluation of the therapeutic potential of the compound of Example 1 (cpd 1) in a mouse model of Dextran Sodium Sulfate (DSS) induced ulcerative colitis (UC)\nFemale C57BI/6 mice (Charles River, St-Constant, Qc), weighting 15-20 g at delivery were used for this study. Following arrival in the animal facility, all animals were subjected to a general health evaluation. […]\nSpecific symptoms associated to UC were scored based on the severity of each particular symptoms: • 1- blood in stool (negative hemoccult, positive hemoccult, visible blood traces in stool, rectal bleeding); • 2- stool consistency (normal, soft, diarrhea); • 3- body weight loss (score 0: 0-1 %; 1: 1.5-5%; 2: 5.5-10%; 3: 10.5-15 %; 4: 15.5-20 %; 5: >20%). […]\nOnce the mouse was euthanized, the colon was collected, and its length was measured. Lesion length was also measured. Colon lesions was scored macroscopically based on inflammation, thickening and vascularization to give an overall macroscopic inflammation score of each animal in the study. […]\nStatistical differences among groups were determined using a two-way ANOVA, followed by a post-hoc analysis, using Tukey’s multiple comparison test, to compare each group to the DSS+vehicle control group. […]"}
{"smiles": "CC(C)C[C@@H]1NC(=O)c2ccc(-c3ccc(N4CCN(C(=O)c5ccccc5-c5ccccc5C(=O)N5CCN(c6ccc(-c7ccc8cc7CNC(=O)[C@@H]7CCCN7[C@H](C(=O)NC(C)(C)C)[C@H](C)NC(=O)[C@H]([C@@H](C)O)NC(=O)[C@H](CC(=O)O)NC(=O)[C@H](CC(C)C)NC8=O)cc6)CC5)CC4)cc3)c(c2)CNC(=O)[C@@H]2CCCN2[C@H](C(=O)NC(C)(C)C)[C@H](C)NC(=O)[C@H]([C@@H](C)O)NC(=O)[C@H](CC(=O)O)NC1=O", "note": "[Example 1, 2,2′-((S,S,S,S,S,S,1^2,8S,11S,14S,17S,18S)-((([1,1′-Biphenyl]-2,2′-Dicarbonyl)-Bis(Piperazine-4,1-Diyl))Bis(4,1-Phenylene))Bis(18-(Tert-Butylcarbamoyl)-14-((R)-1-Hydroxyethyl)-8-Isobutyl-17-Methyl-2,6,9,12,15-Pentaoxo-3,7,10,13,16-Pentaaza-1(2,1)-Pyrrolidina-5(1,3)-Benzenacyclooctadecaphane-5^6,11-Diyl))-Diacetic Acid]", "values": [{"measurement": "effect on DAI score", "setting": "100 mg/kg p.o. once daily day 0-14, DSS mice, vs DSS + vehicle", "result": "did not lead to any beneficial effect"}, {"measurement": "macroscopic inflammation score, % less than DSS + vehicle", "setting": "100 mg/kg p.o. once daily day 0-14, colon at day 14, significant difference", "result": "around 30%"}, {"measurement": "MPO U/g colon protein, % less than DSS + vehicle", "setting": "100 mg/kg p.o. once daily day 0-14, medio-distal colon, ELISA, not statistically significant", "result": "approximately 49%"}]}
